Data: patent publication US20250333424A1, “ANTIVIRAL COMPOUNDS” (Gilead Sciences, Inc., priority 2024, published 2025)

Experiments:
[1] = tested on: monocytic THP1 cells infected with HIV VSV-G pseudotyped GFP-NEF reporter virus; test: cells; type: cell-based; conditions: Human immunodeficiency virus 1, THP-1, 24 h
[2] = tested on: CD4 cells, isolated from healthy donor PMBCs, infected with HIV VSV-G pseudotyped GFP-GAG reporter virus; test: tissue or blood; type: cell-based; conditions: Homo sapiens, 72 h

Row | Structure (SMILES) | EC50 [1] | EC50 [2]
1 | Cc1cc(/C=C/C#N)cc(C)c1Oc1nc(NC23CC(C#N)(C2)C3)nc2[nH]c(=O)[nH]c12 [Compound 27, (E)-3-((6-(4-(2-cyanovinyl)-2,6-dimethylphenoxy)-8-oxo-8,9-dihydro-7H-purin-2-yl)amino)bicyclo[1.1.1]pentane-1-carbonitrile] | 0.0683 µM | 0.0994 µM
2 | COc1ccc(Cn2cnc3c(Oc4c(C)cc(/C=C/C#N)cc4C)nc(NC45CC(C#N)(C4)C5)nc32)cc1 [Compound 42, (E)-3-((6-(4-(2-cyanovinyl)-2,6-dimethylphenoxy)-9-(4-methoxybenzyl)-9H-purin-2-yl)amino)bicyclo[1.1.1]pentane-1-carbonitrile] | 0.518 µM | 0.894 µM
3 | COc1ccc(Cn2cnc3nc(NC45CC(C#N)(C4)C5)nc(Oc4c(C)cc(/C=C/C#N)cc4C)c32)cc1 [Compound 43, (E)-3-((6-(4-(2-cyanovinyl)-2,6-dimethylphenoxy)-7-(4-methoxybenzyl)-7H-purin-2-yl)amino)bicyclo[1.1.1]pentane-1-carbonitrile] | 0.0905 µM | 0.0877 µM
4 | Cc1cc(/C=C/C#N)cc(C)c1Oc1nc(NC23CC(C#N)(C2)C3)nc2nc(C3CC3)[nH]c12 [Compound 49, (E)-3-((6-(4-(2-cyanovinyl)-2,6-dimethylphenoxy)-8-cyclopropyl-7H-purin-2-yl)amino)bicyclo[1.1.1]pentane-1-carbonitrile] | 0.11 µM | 0.166 µM
5 | Cc1cc(/C=C/C#N)cc(C)c1Oc1nc(NC23CC(C#N)(C2)C3)nc2nc(C3CCC3)[nH]c12 [Compound 50, (E)-3-((6-(4-(2-cyanovinyl)-2,6-dimethylphenoxy)-8-cyclobutyl-7H-purin-2-yl)amino)bicyclo[1.1.1]pentane-1-carbonitrile] | 0.166 µM | 0.151 µM
6 | Cc1nc2c(Nc3c(C)cc(/C=C/C#N)cc3C)nc(NC34CC(C#N)(C3)C4)nc2s1 [Compound 55, (E)-3-((7-((4-(2-cyanovinyl)-2,6-dimethylphenyl)amino)-2-methylthiazolo[5,4-d]pyrimidin-5-yl)amino)bicyclo[1.1.1]pentane-1-carbonitrile] | 0.13 µM | 0.0259 µM
7 | Cc1cc(/C=C/C#N)cc(C)c1Oc1nc(NC23CC(C#N)(C2)C3)nc2scnc12 [Compound 56, (E)-3-((7-(4-(2-cyanovinyl)-2,6-dimethylphenoxy)thiazolo[5,4-d]pyrimidin-5-yl)amino)bicyclo[1.1.1]pentane-1-carbonitrile] | 0.142 µM | 0.0966 µM
8 | Cc1cc(/C=C/C#N)cc(C)c1Oc1nc(NC23CC(C#N)(C2)C3)nc2nc(C(C)(C)O)[nH]c12 [Compound 60, (E)-3-((6-(4-(2-cyanovinyl)-2,6-dimethylphenoxy)-8-(2-hydroxypropan-2-yl)-7H-purin-2-yl)amino)bicyclo[1.1.1]pentane-1-carbonitrile] | 0.373 µM | 0.175 µM
9 | Cc1cc(/C=C/C#N)cc(C)c1Oc1nc(NC23CC(C#N)(C2)C3)nc2nc(-c3cnn(C)c3)[nH]c12 [Compound 64, (E)-3-((6-(4-(2-cyanovinyl)-2,6-dimethylphenoxy)-8-(1-methyl-1H-pyrazol-4-yl)-7H-purin-2-yl)amino)bicyclo[1.1.1]pentane-1-carbonitrile] | 0.123 µM | 0.274 µM
10 | Cc1cc(/C=C/C#N)cc(C)c1Oc1nc(NC23CC(C#N)(C2)C3(F)F)nc2nn(C)cc12 [Compound 76, (E)-3-((4-(4-(2-cyanovinyl)-2,6-dimethylphenoxy)-2-methyl-2H-pyrazolo[3,4-d]pyrimidin-6-yl)amino)-2,2-difluorobicyclo[1.1.1]pentane-1-carbonitrile] | 0.0253 µM | 0.0193 µM
11 | Cc1cc(/C=C/C#N)cc(C)c1Oc1nc(NC23CC(C#N)(C2)C3)nc2[nH]nnc12 [Compound 80, €-3-((7-(4-(2-cyanovinyl)-2,6-dimethylphenoxy)-3H-[1,2,3]triazolo[4,5-d]pyrimidin-5-yl)amino)bicyclo[1.1.1]pentane-1-carbonitrile] | 0.593 µM | 0.551 µM
12 | Cc1cc(/C=C/C#N)cc(C)c1OC1=NC(NC23CC(C#N)(C2)C3)=NC2N=CN(C)C12 (centres unmarked) [Compound 89, (E)-3-((6-(4-(2-cyanovinyl)-2,6-dimethylphenoxy)-7-methyl-4,5-dihydro-7H-purin-2-yl)amino)bicyclo[1.1.1]pentane-1-carbonitrile] | 0.0244 µM | 0.0166 µM
13 | Cc1cc(/C=C/C#N)cc(C)c1Oc1nc(NC23CC(C#N)(C2)C3)nc2nc(C)n(C)c12 [Compound 97, (E)-3-((6-(4-(2-cyanovinyl)-2,6-dimethylphenoxy)-7,8-dimethyl-7H-purin-2-yl)amino)bicyclo[1.1.1]pentane-1-carbonitrile] | 0.0325 µM | 0.0511 µM
14 | Cc1cc(/C=C/C#N)cc(C)c1Oc1nc(NC23CC(C#N)(C2)C3)nc2ncn(CC(F)(F)F)c12 [Compound 106, (E)-3-((6-(4-(2-cyanovinyl)-2,6-dimethylphenoxy)-7-(2,2,2-trifluoroethyl)-7H-purin-2-yl)amino)bicyclo[1.1.1]pentane-1-carbonitrile] | 0.216 µM | 0.237 µM
15 | Cc1cc(/C=C/C#N)cc(C)c1Oc1nc(NC23CC(C#N)(C2)C3)nc2[nH]nc(C#N)c12 [Compound 112, (E)-6-((3-cyanobicyclo[1.1.1]pentan-1-yl)amino)-4-(4-(2-cyanovinyl)-2,6-dimethylphenoxy)-1H-pyrazolo[3,4-d]pyrimidine-3-carbonitrile] | 0.745 µM | 0.294 µM
16 | Cc1cc(/C=C/C#N)cc(C)c1Oc1nc(NC23CC(C#N)(C2)C3)nc2c1ncn2C(C)C [Compound 113, (E)-3-((6-(4-(2-cyanovinyl)-2,6-dimethylphenoxy)-9-isopropyl-9H-purin-2-yl)amino)bicyclo[1.1.1]pentane-1-carbonitrile] | 0.168 µM | 0.102 µM
17 | Cc1cc(/C=C/C#N)cc(C)c1Oc1nc(NC23CC(C#N)(C2)C3)nc2cc[nH]c12 [Compound 115, (E)-3-((4-(4-(2-cyanovinyl)-2,6-dimethylphenoxy)-5H-pyrrolo[3,2-d]pyrimidin-2-yl)amino)bicyclo[1.1.1]pentane-1-carbonitrile] | 0.0994 µM | 0.111 µM
18 | Cc1cc(/C=C/C#N)cc(C)c1Oc1nc(NC23CC(C#N)(C2)C3)nc2[nH]nc(C)c12 [Compound 119, 3-[[4-[4-[(E)-2-cyanovinyl]-2,6-dimethyl-phenoxy]-3-methyl-1H-pyrazolo[3,4-d]pyrimidin-6-yl]amino]bicyclo[11.1.1]pentane-1-carbonitrile] | 0.0193 µM | 0.0169 µM
19 | Cc1cc(/C=C/C#N)cc(C)c1Oc1nc(NC23CC(C#N)(C2)C3)nc2nn(C)cc12 [Compound 120, 3-[[4-[4-[(E)-2-cyanovinyl]-2,6-dimethyl-phenoxy]-2-methyl-pyrazolo[3,4-d]pyrimidin-6-yl]amino]bicyclo[1.1.1]pentane-1-carbonitrile] | 0.0211 µM | 0.0229 µM
20 | Cc1cc(/C=C/C#N)cc(C)c1Oc1nc(NC23CC(C#N)(C2)C3)nc2cnn(C)c12 [Compound 122] | 0.054 µM | 0.0473 µM
21 | Cc1nc2nc(NC34CC(C#N)(C3)C4)nc(Oc3c(C)cc(/C=C/C#N)cc3C)c2s1 [Compound 124, 3-[[7-[4-[(E)-2-cyanovinyl]-2,6-dimethyl-phenoxy]-2-methyl-thiazolo[4,5-d]pyrimidin-5-yl]amino]bicyclo[11.1.1]pentane-1-carbonitrile] | 0.0617 µM | 0.027 µM
22 | Cc1cc(/C=C/C#N)cc(C)c1Oc1nc(NC23CC(C#N)(C2)C3)nc2c1cnn2C [Compound 128, 3-[[4-[4-[(E)-2-cyanovinyl]-2,6-dimethyl-phenoxy]-1-methyl-pyrazolo[3,4-d]pyrimidin-6-yl]amino]bicyclo[11.1.1]pentane-1-carbonitrile] | 0.131 µM | 0.106 µM
23 | Cc1cc(/C=C/C#N)cc(C)c1Oc1nc(NC23CC(C#N)(C2)C3)nc2c1nnn2C [Compound 129, 3-[[7-[4-[(E)-2-cyanovinyl]-2,6-dimethyl-phenoxy]-3-methyl-triazolo[4,5-d]pyrimidin-5-yl]amino]bicyclo[11.1.1]pentane-1-carbonitrile] | 0.168 µM | 0.131 µM
24 | Cc1cc(/C=C/C#N)cc(C)c1Oc1nc(NC23CC(C#N)(C2)C3)nc2c1CCN2 [Compound 130, 3-[[4-[4-[(E)-2-cyanovinyl]-2,6-dimethyl-phenoxy]-6,7-dihydro-5H-pyrrolo[2,3-d]pyrimidin-2-yl]amino]bicyclo[11.1.1]pentane-1-carbonitrile] | 0.221 µM | 0.056 µM
25 | Cc1cc(/C=C/C#N)cc(C)c1Oc1nc(NC23CC(C#N)(C2)C3)nc2onc(C)c12 [Compound 142, (E)-3-((4-(4-(2-cyanovinyl)-2,6-dimethylphenoxy)-3-methylisoxazolo[5,4-d]pyrimidin-6-yl)amino)bicyclo[1.1.1]pentane-1-carbonitrile] | 0.024 µM | 0.0176 µM
26 | Cc1cc(/C=C/C#N)cc(C)c1Oc1nc(NC23CC(C#N)(C2)C3)nc2c1c(C)nn2C [Compound 148, (E)-3-((4-(4-(2-cyanovinyl)-2,6-dimethylphenoxy)-1,3-dimethyl-1H-pyrazolo[3,4-d]pyrimidin-6-yl)amino)bicyclo[1.1.1]pentane-1-carbonitrile] | 0.0481 µM | 0.041 µM
27 | Cc1cc(/C=C/C#N)cc(C)c1Oc1nc(NC23CC(C#N)(C2)C3)nc2c1CN(C)C2 [Compound 150, (E)-3-((4-(4-(2-cyanovinyl)-2,6-dimethylphenoxy)-6-methyl-6,7-dihydro-5H-pyrrolo[3,4-d]pyrimidin-2-yl)amino)bicyclo[1.1.1]pentane-1-carbonitrile] | 0.0992 µM | 0.11 µM
28 | Cc1cc(/C=C/C#N)cc(C)c1Oc1nc(NC23CC(C4COC4)(C2)C3)nc2[nH]nc(C)c12 [Compound 154, (E)-3-(3,5-dimethyl-4-((3-methyl-6-((3-(oxetan-3-yl)bicyclo[1.1.1]pentan-1-yl)amino)-1H-pyrazolo[3,4-d]pyrimidin-4-yl)oxy)phenyl)acrylonitrile] | 0.235 µM | 0.324 µM
